Measured values from paper PMC6274259, “New 3-Cyano-2-Substituted Pyridines Induce Apoptosis in MCF 7 Breast Cancer Cells” (Molecules, 2016).

How the values were obtained:
[1] = test system: MDA-MB-231 human breast adenocarcinoma cell line; test: WST-1 cell viability assay, MDA-MB-231; type: cell-based; conditions: Homo sapiens, MDA-MB-231; WST-1, 24 h treatment, mean ± S.D of three independent experiments
Excerpt: (§1) The synthesized compounds were screened for their cytotoxicity on five cancer cell lines, namely SK-OV-3, MCF-7, MDA-MB-231, HCT-116 and RKO, using a WST colorimetric assay. The assay principle is based upon the reduction of the tetrazolium salt WST-1 to formazan by cellular mitochondrial dehydrogenases present in viable cells. […] Among the latter compounds the benzohydrazide derivative 9a emerged with the lowest IC50 in this study against MCF-7 cells compared to 5-FU. […] Based on the fact that 9a had less cytotoxic effects on normal breast epithelial cells it was subjected to further studies.
(§2) The following cell lines were used for the screening stage, obtained from the American Type Culture Collection (ATCC, Manassas, VA, USA); SK-OV-3 (HTB-77), MCF-12A (ATCC CRL-10782), MDA-MB-231 (ATCC HTB-26), HCT-116 (CCL-247), RKO (CRL-2577) and sub-culturing of the above cell lines was conducted in 75 cm^2 flasks. The old culture media was removed and discarded after assessing the confluency of the cells and the cells were rinsed with 2–3 mL diluted trypsin (1×) (trypsin/EDTA solution consists of 0.025% trypsin and 0.01% EDTA in PBS), for about 5 minutes for complete detachment. The cells were observed under the inverted microscope until the cell layer is completely dispersed. 75 cm^2 flasks were prepared and 16 mL of DMEM media for SK-OV-3, MCF-7, MDA-MB-231, (DMEM 4500 mg glucose) and RPMI media for HCT-116 were added to each flask. The cells were aspirated gently and added to the flasks. DMEM 4500 mg/L high glucose with 10% FBS, 5% streptomycin and penicillin, RPMI 1640 (prepared by adding 5% heat-inactivated FCS and 2 mm glutamine) were used. DMEM was also used for MCF-12A cells with the addition of human epidermal growth factor 20 ng/mL, insulin 0.01 mg/mL and hydrocortisone 500 ng/mL.
(§3) The synthesized compounds were screened for their anti-proliferative activity using 5-FU (F6627-1G, Sigma-Aldrich, St. Louis, MO, USA) as reference compound. A concentration of 0.4% DMSO was used in all experiment after ensuring 100% viability of the cell lines with this concentration. A 25 mM stock concentration of all compounds was prepared for further studies and analysis.
(§4) Cells were trypsinized and placed in a 15 mL Falcon tube, the cells were centrifuged for 3 min at 1000 rpm. Trypsin is decanted using a sterile pipette and then the pellet is loosened by flicking the tube few times then 5–10 mL warm DMEM or RPMI were added to the Falcon tube and the pellet is resuspended. Cell count was done next by taking 10 μL of the suspension into the cell counting slide and read under 10× cells/mL. A cell stock of 50,000 cells/mL was prepared for the 96 wells. Cells (100 μL) were added to each well using a sterile pipette each time to ensure consistency. The experiment was planned ahead of time using excel sheet, 3–6 wells were reserved as blank media while 3–6 wells for vehicle (DMSO). The plate was incubated for 24 h for compound treatment step. DMEM media was used to prepare different dilutions of the compounds. The old DMEM media was removed from the wells using sterile pipette in the hood and the media was replaced with 100 μL media with each compound. The plate was incubated for 24 h. After 24 h incubation, WST-1 reagent (Sigma) was added to each well and then the plate was incubated for 1 h before measuring the absorbance using VICTOR™ Multilabel Plate Reader (Perkin Elmer, Beaconsfield, UK). The absorbance of the colored solution can be quantified by measuring at a certain wavelength (usually between 500–600 nm), in this experiment the first reading was conducted at 540 nm and the second reading at 690 nm for the reference wavelength. The percentage of cell viability was determined as the ratio of the absorbance of the sample vs the control. Three independent experiments were performed. […] 5-Florouracil (Sigma-Aldrich, F6627-1G) was used as reference standard.

[2] = test system: RKO human colon carcinoma cell line; test: WST-1 cell viability assay, RKO; type: cell-based; conditions: Homo sapiens, Colon carcinoma cell; WST-1, 24 h treatment, mean ± S.D of three independent experiments
Excerpt: as §1, §2, §3, §4

[3] = test system: MCF-7 human breast adenocarcinoma cell line; test: WST-1 cell viability assay, MCF-7; type: cell-based; conditions: Homo sapiens, MCF7, 24 h, WST-1, 24 h treatment, mean ± S.D of three independent experiments
Excerpt: as §1, §2, §3, §4

[4] = test system: HCT-116 human colon carcinoma cell line; test: WST-1 cell viability assay, HCT-116; type: cell-based; conditions: Homo sapiens, HCT-116; WST-1, 24 h treatment, mean ± S.D of three independent experiments
Excerpt: as §1, §2, §3, §4

[5] = test system: SK-OV-3 human ovarian carcinoma cell line; test: WST-1 cell viability assay, SK-OV-3; type: cell-based; conditions: Homo sapiens, SK-OV-3; WST-1, 24 h treatment, mean ± S.D of three independent experiments
Excerpt: as §1, §2, §3, §4

Structure (SMILES)	IC50 [1] [µM]	melting point [°C]	IC50 [2] [µM]	IC50 [3] [µM]	IC50 [4] [µM]	IC50 [5] [µM]
COc1ccc(-c2cc(-c3ccc(OC)c(OC)c3)c(C#N)c(OCC(=O)n3nc(SC)c(C#N)c3N)n2)cc1OC [Compound 13b, 2-{2-[5-Amino-4-cyano-3-(methylsulfanyl)-1H-pyrazol-1-yl]-2-oxoethoxy}-4,6-bis(3,4-dimethoxyphenyl)-pyridine-3-carbonitrile]	> 50	202 to 204	> 50	> 50	30.1 ± 0.76	> 50
COc1ccc(C=NNC(=O)COc2nc(-c3ccc(OC)c(OC)c3)cc(-c3ccc(OC)c(OC)c3)c2C#N)cc1 [Compound 8a, 2-[3-Cyano-4,6-bis(3,4-dimethoxyphenyl)pyridin-2-yl]oxy-N'-(4-methoxybenzylidene)acetohydrazide]	25.3 ± 1.24	163 to 164	12.32 ± 0.02	12 ± 0.96	28.8 ± 0.31	14.1 ± 0.95
COc1ccc(-c2cc(-c3ccc(OC)c(OC)c3)c(C#N)c(OCC(=O)NN=Cc3cc(OC)c(OC)c(OC)c3)n2)cc1OC [Compound 8c, 2-[3-Cyano-4,6-bis(3,4-dimethoxyphenyl)pyridin-2-yl]oxy-N'-(3,4,5-trimethoxybenzylidene)acetohydrazide]	20.3 ± 1.06	232 to 234	16.3 ± 0.37	15.3 ± 0.74	25.9 ± 0.83	12.1 ± 0.98
COc1ccc(C=NNC(=O)COc2nc(-c3ccc(OC)c(OC)c3)cc(-c3ccc(OC)c(OC)c3)c2C#N)cc1OC [Compound 8b, 2-[3-Cyano-4,6-bis(3,4-dimethoxyphenyl)pyridin-2-yl]oxy-N'-(3,4-dimethoxybenzylidene)acetohydrazide]	32.3 ± 0.87	190 to 192	14.2 ± 0.91	9.31 ± 0.98	25.2 ± 0.89	10.2 ± 0.92
COC(=O)c1c(SC)nn(C(=O)COc2nc(-c3ccc(OC)c(OC)c3)cc(-c3ccc(OC)c(OC)c3)c2C#N)c1N [Compound 13a, Methyl 5-amino-1-{[(3-cyano-4,6-bis(3,4-dimethoxyphenyl)pyridin-2-yl)oxy]acetyl}-3-(methylsulfanyl)-1H-pyrazole-4-carboxylate]	> 50	184 to 186	> 50	> 50	36.3 ± 1.71	> 50
COc1ccc(C(=O)NNC(=O)COc2nc(-c3ccc(OC)c(OC)c3)cc(-c3ccc(OC)c(OC)c3)c2C#N)cc1 [Compound 9b, N'-[2-(3-cyano-4,6-bis(3,4-dimethoxyphenyl)pyridin-2-yloxy)acetyl]-4-methoxybenzo hydrazide]	19.3 ± 0.86	170 to 172	9.95 ± 1.06	10.2 ± 0.92	17.9 ± 0.74	7.08 ± 0.16

Second part, the molecule after the results:

IC50 [1] [µM]	melting point [°C]	IC50 [2] [µM]	IC50 [3] [µM]	IC50 [4] [µM]	IC50 [5] [µM]	Structure (SMILES)
31.7 ± 0.89	158 to 160	20.3 ± 0.76	7.1 ± 0.44	26.9 ± 0.97	5.12 ± 0.11	COc1ccc(-c2cc(-c3ccc(OC)c(OC)c3)c(C#N)c(OCC(=O)NNC(=S)SCCN3CCOCC3)n2)cc1OC [Compound 7c, 2-Morpholinoethyl-2-[2-(3-cyano-4,6-bis(3,4-dimethoxyphenyl)pyridin-2-yloxy)acetyl]hydrazinecarbo-dithioate]
35.8 ± 0.96	110 to 112	17.4 ± 0.44	20.3 ± 0.98	13.1 ± 0.84	25.2 ± 0.76	COc1ccc(-c2cc(-c3ccc(OC)c(OC)c3)c(C#N)c(OCC(C)=O)n2)cc1OC [Compound 4d, 4,6-bis(3,4-Dimethoxyphenyl)-2-(2-oxopropoxy)pyridine-3-carbonitrile]
30.1 ± 0.88	151 to 153	11.2 ± 0.91	11.2 ± 0.22	23.2 ± 0.95	9.01 ± 0.42	COc1ccc(-c2cc(-c3ccc(OC)c(OC)c3)c(C#N)c(OCC(=O)NNC(=S)SC)n2)cc1OC [Compound 7a, Methyl 2-[2-(3-cyano-4,6-bis(3,4-dimethoxyphenyl)pyridin-2-yloxy)acetyl]hydrazinecarbodithioate]
35.5 ± 1.03	160 to 162	25 ± 1.33	14.3 ± 0.95	11.2 ± 1.26	10.1 ± 0.98	COc1ccc(-c2cc(-c3ccc(OC)c(OC)c3)c(C#N)c(OCC(=O)NNC(=S)SCCN3CCCCC3)n2)cc1OC [Compound 7d, 2-(Piperidin-1-yl)-ethyl-2-[2-(3-cyano-4,6-bis(3,4-dimethoxyphenyl)pyridin-2-yloxy)acetyl]hydrazinecarbo-dithioate]
